Laboratory results from patent publication US20200009262A1, “TARGETED CONSTRUCTS AND FORMULATIONS THEREOF” (TARVEDA THERAPEUTICS, INC., priority 2016, published 2020).
Like-named read-outs stand apart in the source and are kept apart here.

What was measured:
Once/week MTD = conditions: in vivo
[1] = In vivo half-life / NCA pharmacokinetics of albumin binding conjugates in rat plasma; set-up: species or system rats; conditions: for half-life: iv, 1 mg/kg
Procedure: Compound 3 and Compound 4 were administered to rats at 1 mg/kg via IV. […] Therefore, the concentration of Compound 3′ is measured after treating plasma samples at a low pH.

[2] = Blood pressure study, tail cuff, 10 minute intravenous infusion; format: in vivo, Sprague Dawley rats; conditions: 400 nmol/kg infused over 10 minutes; significant drop = drop of at least 10%
Procedure: An external pumping device was used to deliver the target dose volume for each animal over a 10 minute dosing interval. Blood pressure was measured by tail cuff using the CODA Non-Invasive Blood Pressure system. Animals were placed in restrainers with the tail cuff on. The animals and the restrainers were then placed on a heating pad for approximately 5 minutes. Following the 5 minute heating pad acclimation an additional acclimation data collection took place prior to dose initiation for approximately 5 minutes. Blood pressure data began at dose initiation and was collected through at least 30 minutes postdose. […] Test articles were infused over 10 minutes. The start and stop times for the following processes were documented. The following parameters were collected: diastolic pressure, systolic pressure, mean blood pressure, heart rate, tail blood flow, and tail blood volume.

SW48 cells = experiment: IC50 in SW48 cells; format: cell-based, human
[3] = tested on: SW48 xenograft model (human colorectal cancer); experiment: Efficacy study in SW48 xenograft model, tumor growth inhibition; format: in vivo; conditions: irinotecan 50 mg/kg once/week for two weeks
Procedure: Efficacy of Compound 3 was tested in an SW48 xenograft model (human colorectal cancer). Efficacies of the other compounds in Table 2 were also tested. All conjugates were dosed twice/week for two weeks.

[4] = transthyretin, 55 KDa serum protein, background statement; cited from earlier work
[5] = in vivo, IV 1.0 mg/kg, plasma, measured as Compound 3′ after low pH treatment
[6] = Day 4, conjugates twice/week for two weeks (3, 4, 7, 8: 2.0 mg/kg; 5, 6: 0.025 mg/kg)
[7] = Day 8, conjugates twice/week for two weeks (3, 4, 7, 8: 2.0 mg/kg; 5, 6: 0.025 mg/kg)
[8] = Day 10, conjugates 2.0 mg/kg twice/week for two weeks
[9] = Day 14, conjugates 2.0 mg/kg twice/week for two weeks
[10] = Day 17, conjugates 2.0 mg/kg twice/week for two weeks
[11] = Day 21, conjugates 2.0 mg/kg twice/week for two weeks

For `COc1cc2cc(c1Cl)N(C)C(=O)C[C@H](OC(=O)[C@H](C)N(C)C(=O)CCSC1CC(=O)N(CCCNC(=O)CNC(=O)[C@H](CC(C)C)NC(=O)[C@H](Cc3ccccc3)NC(=O)CNC(=O)CCC(=O)NCCCC[C@H](NC(=O)c3ccc(/C(C)=N/NC(=O)CCCCCN4C(=O)C=CC4=O)cc3)C(=O)N3CCC[C@H]3C(=O)N(C)[C@@H](CCCNC(=N)N)C(=O)N[C@@H](CCCNC(=N)N)C(=O)N3CCC[C@H]3C(=O)N[C@@H](Cc3ccc(O)cc3)C(=O)N[C@H](C(=O)N[C@@H](CC(C)C)C(=O)O)C(C)(C)C)C1=O)[C@]1(C)O[C@H]1[C@H](C)[C@@H]1C[C@@](O)(NC(=O)O1)[C@H](OC)/C=C/C=C(\C)C2` (stereo partly drawn) [Compound 3], the MTD (Once/week MTD) was 4 to 8 mg/kg, the “rat plasma half-life relative to Compound 4 (does not bind albumin)” value ([1]; IV 1 mg/kg) was 80 fold and the AUC [1, 5] was 33.7 µM·h. It also gave an AUC(0-inf) [1, 5] of 39.3 µM·h, a Cmax [1, 5] of 4.69 µM and a clearance [1, 5] of 0.16 mL/min/kg. For the same molecule, the Vd ([1]; in vivo, IV 1.0 mg/kg, plasma, measured as Compound 3′ after low pH treatment, read-out: Vss) was 0.107 L/kg, the half-life ([1]; in vivo, IV 1.0 mg/kg, plasma, measured as Compound 3′ after low pH treatment of plasma samples, read-out: t½ (converted)) was 9.32 h and the half-life ([1]; in vivo, IV 1 mg/kg, read-out: rat plasma half-life (converted)) was 9.3 h. The “mean blood pressure change” value [2] was “no significant drop in mean blood pressure”.
In the case of `COc1cc2cc(c1Cl)N(C)C(=O)C[C@H](OC(=O)[C@H](C)N(C)C(=O)CCSC1CC(=O)N(CCCNC(=O)CNC(=O)[C@H](CC(C)C)NC(=O)[C@H](Cc3ccccc3)NC(=O)CNC(=O)CCC(=O)NCCCC[C@H](NC(C)=O)C(=O)N3CCC[C@H]3C(=O)N(C)[C@@H](CCCNC(=N)N)C(=O)N[C@@H](CCCNC(=N)N)C(=O)N3CCC[C@H]3C(=O)N[C@@H](Cc3ccc(O)cc3)C(=O)N[C@H](C(=O)N[C@@H](CC(C)C)C(=O)O)C(C)(C)C)C1=O)[C@]1(C)O[C@H]1[C@H](C)[C@@H]1C[C@@](O)(NC(=O)O1)[C@H](OC)/C=C/C=C(\C)C2` (stereo partly drawn) [Compound 4], the IC50 (SW48 cells) is reported as 3.7 nM, the MTD (Once/week MTD) is reported as greater than 8 mg/kg and the “degradation in rat plasma compared with albumin bound Compound 3” value ([1]; IV 1 mg/kg, FIG. 3) is reported as “degraded faster”. For the same molecule, the “mean blood pressure change” value [2] was “significant drop in mean blood pressure”.
`COc1ccc(C2=CN3C(=O)c4cc(OC)c(OCCCOc5cc6c(cc5OC)C(=O)N5C=C(c7ccc(NC(=O)[C@H](C)NC(=O)[C@@H](NC(=O)CCCCCN8C(=O)CC(SCCC(=O)NCCCC[C@H](NC(C)=O)C(=O)N9CCC[C@H]9C(=O)N(C)[C@@H](CCCNC(=N)N)C(=O)N[C@@H](CCCNC(=N)N)C(=O)N9CCC[C@H]9C(=O)N[C@@H](Cc9ccc(O)cc9)C(=O)N[C@H](C(=O)N[C@@H](CC(C)C)C(=O)O)C(C)(C)C)C8=O)C(C)C)cc7)C[C@H]5C=N6)cc4N=C[C@@H]3C2)cc1` (stereo partly drawn) [Compound 5] showed an IC50 (SW48 cells) of 1.8 nM, an MTD (Once/week MTD) of 0.05 mg/kg and a TGI % [3, 6] of 21.3%. It also gave a TGI % [3, 7] of 45.9%.
With `COc1ccc(C2=CN3C(=O)c4cc(OC)c(OCCCOc5cc6c(cc5OC)C(=O)N5C=C(c7ccc(NC(=O)[C@H](C)NC(=O)[C@@H](NC(=O)CCCCCN8C(=O)CC(SCCC(=O)NCCCC[C@H](NC(C)=O)C(=O)N9CCC[C@H]9C(=O)N[C@@H](CC(C)C)C(=O)N9CCC[C@H]9C(=O)N(C)[C@@H](CCCNC(=N)N)C(=O)N[C@H](C(=O)N[C@@H](CCCNC(=N)N)C(=O)N[C@@H](Cc9ccc(O)cc9)C(=O)O)C(C)(C)C)C8=O)C(C)C)cc7)C[C@H]5C=N6)cc4N=C[C@@H]3C2)cc1` (stereo partly drawn) [Compound 6] the IC50 (SW48 cells) was 4 nM, the MTD (Once/week MTD) was 0.05 mg/kg and the TGI % [3, 6] was 22.2%. It also gave a TGI % [3, 7] of 28.3%.
Work on `COc1cc2cc(c1Cl)N(C)C(=O)C[C@H](OC(=O)[C@H](C)N(C)C(=O)CCSC1CC(=O)N(CCCNC(=O)CNC(=O)[C@H](CC(C)C)NC(=O)[C@H](Cc3ccccc3)NC(=O)CNC(=O)CCC(=O)NCCCC[C@H](NC(C)=O)C(=O)N3CCC[C@H]3CN[C@@H](CC(C)C)C(=O)N3CCC[C@H]3C(=O)N(C)[C@@H](CCCNC(=N)N)C(=O)N[C@H](C(=O)N[C@@H](CCCNC(=N)N)C(=O)N[C@@H](Cc3ccc(O)cc3)C(=O)O)C(C)(C)C)C1=O)[C@]1(C)O[C@H]1[C@H](C)[C@@H]1C[C@@](O)(NC(=O)O1)[C@H](OC)/C=C/C=C(\C)C2` (stereo partly drawn) [Compound 7] yielded an MTD (Once/week MTD) greater than 8 mg/kg, a TGI % [3, 6] of −11% and a TGI % [3, 7] of −22.6%. It also gave a TGI % [3, 8] of −29.7%, a TGI % [3, 9] of −32% and a TGI % [3, 10] of −48.3%. It also gave a TGI % [3, 11] of −52.8%.
Molecule `CCc1c2c(nc3ccc(OC(=O)N4CCC(N5CCCCC5)CC4)cc13)-c1cc3c(c(=O)n1C2)COC(=O)[C@]3(O)CC` [Irinotecan, irinotecan, reference compound] has an MTD (Once/week MTD) of 50 mg/kg, a TGI % [3, 7] of 10% and a TGI % [3, 8] of 12.8%. The TGI % [3, 9] was 33%, the TGI % [3, 10] was 34.9% and the TGI % [3, 11] was 33.9%.
In the case of Transthyretin, the in vivo half-life [4] is listed as “around 48 h”.
